Data reported in paper PMC8221158, “Novel pyrrolizines bearing 3,4,5-trimethoxyphenyl moiety: design, synthesis, molecular docking, and biological evaluation as potential multi-target cytotoxic agents” (Journal of Enzyme Inhibition and Medicinal Chemistry, 2021).

Molecular target: T1, Aurora A (Homo sapiens, UniProt O14965)
T1 sequence (O14965 1-403): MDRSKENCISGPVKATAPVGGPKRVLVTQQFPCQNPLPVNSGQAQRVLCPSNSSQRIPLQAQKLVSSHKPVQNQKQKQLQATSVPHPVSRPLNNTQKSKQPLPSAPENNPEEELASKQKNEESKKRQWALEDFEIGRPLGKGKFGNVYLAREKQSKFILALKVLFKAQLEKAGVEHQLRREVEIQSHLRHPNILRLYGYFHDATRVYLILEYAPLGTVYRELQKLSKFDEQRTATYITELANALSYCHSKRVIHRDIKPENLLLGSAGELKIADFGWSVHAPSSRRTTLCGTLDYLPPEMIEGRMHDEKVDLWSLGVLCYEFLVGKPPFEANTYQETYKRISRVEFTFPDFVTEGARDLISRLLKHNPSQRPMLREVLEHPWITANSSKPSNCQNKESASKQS
Assay: Kinase profiling test
Type: biochemical
Details: stated as inhibition
Description: The test was performed using the radiolabeled ATP determination method (KINEXUS Bioinformatics Corporation, Vancouver, Canada). The test was performed following the previous reports[13]^,[20].
The three compounds were tested at the same concentration (10 μM) against the same 20 kinases used in the previous report. The test was performed by KINEXUS Bioinformatics Corporation (Vancouver, Canada), following previous reports[13]^,[20].

inhibition at 10 µM: 14%
Structure (SMILES): COc1cc(C(=O)Nc2c(C#N)c3n(c2C(=O)Nc2ccc(Cl)cc2)CCC3)cc(OC)c1OC [16d, N-(4-Chlorophenyl)-7-cyano-6-(3,4,5-trimethoxybenzamido) -2,3-dihydro-1H-pyrrolizine-5-carboxamide]
